Experimental data published in PubChem BioAssay AID540252 (Sanford-Burnham Center for Chemical Genomics, 2011).
Activity calls are given as the source filed them. The rule behind the calls is not given here.

These molecules were tested against glucose-6-phosphate dehydrogenase-6-phosphogluconolactonase (Plasmodium falciparum 3D7) (assay: inhibition of P. falciparum G6PD activity – biochemical, end-point NADPH detection, orthogonal assay, dose response (AID 540252)). Conditions: purified PfG6PD enzyme, NADPH direct detection.

| Compound | IC50 |
| --- | --- |
| CC(=O)OCC1(C)CN(c2ccccc2)NC1=O (configuration not stated) | > 80 µM (inactive) |
| C[C@H](CO)N1C[C@H](C)[C@@H](CN(C)C(=O)Nc2ccc(C(F)(F)F)cc2)Oc2c(cccc2N(C)C)C1=O | > 80 µM (inactive) |
| Cc1nc(COC(=O)c2cc(O)c3ccccc3c2O)cs1 | > 80 µM (inactive) |
| Nc1ccc(S(=O)(=O)c2cc(O)c3ccccc3c2O)cc1 | > 80 µM (inactive) |
| Cc1c(Cl)c([N+](=O)[O-])nn1Cc1ccc(C(=O)N/N=C\c2cccc(Br)c2)o1 | > 80 µM (inactive) |
| COc1ccc2ccccc2c1C1CC(=O)N2CN(C3CCCCC3)CSC2=C1C#N (configuration not stated) | > 80 µM (inactive) |
| CCc1cc(-c2n[nH]c(C)c2-c2ccccc2Cl)c(O)cc1OC | > 80 µM (inactive) |
| CCn1c([N+](=O)[O-])nc2c1c(=O)[nH]c(=O)n2C | > 80 µM (inactive) |
| CNCc1ccccc1Sc1cc(O)ccc1O | > 80 µM (inactive) |
| C=CCSc1nnc(NC(=O)c2ccc(Cl)nc2)s1 | > 80 µM (inactive) |
| CCCCCCCCn1sccc1=O | 46 µM |
| CN1CCN(C(=S)C(=O)Nc2ccc(Br)cc2)CC1 | 67.9 µM |
| CCc1ccc(OCC(=O)N/N=C/c2cc([N+](=O)[O-])ccc2N2CCOCC2)cc1 | > 80 µM (inactive) |
| Cc1ccc(S(=O)(=O)/N=C2/C=C(C3C(=O)CC(C)(C)CC3=O)C(=O)c3ccccc32)cc1 | > 80 µM (inactive) |
| Cc1cc(C)nc(SSc2nc(C)cc(C)n2)n1 | 57.6 µM |
| Nn1c(SCC(=O)Nc2cccnc2Cl)nnc1-c1ccccc1 | > 80 µM (inactive) |
| Cc1ccccc1N/C(SCc1cccc(Br)c1)=C(/C#N)C(N)=O | > 80 µM (inactive) |
| COc1cccc(C=Nc2cc(C(C)C)c(O)cc2C)c1O | > 80 µM (inactive) |
| COc1ccc(CN(C)S(=O)(=O)c2nnc(NC(=O)c3cccc(C)c3)s2)cc1OC | > 80 µM (inactive) |
| CN1CCc2cccc3c2[C@H]1Cc1ccc(O)c(O)c1-3 | > 80 µM (inactive) |
| COc1cc(CN2CCN(CCCc3ccccc3)C(CCO)C2)cc(OC)c1O (configuration not stated) | > 80 µM (inactive) |
| CCn1c(SCc2nc3scc(-c4ccccc4)c3c(=O)[nH]2)nnc1-c1cccs1 | > 80 µM (inactive) |
| O=c1c2ccccc2sn1-c1cccc(Cl)c1 | 13.7 µM |
| COc1ccc(Cl)cc1NC(=O)c1cccc([N+](=O)[O-])c1O | > 80 µM (inactive) |
| O=C(Nc1nnc(S(=O)(=O)N2CCOCC2)s1)c1cccc(Br)c1 | > 80 µM (inactive) |
| CC(C)c1cc2c(c(O)c1O)[C@@]13CCCC(C)(C)C1CC2OC3=O (some centres not stated) | > 80 µM (inactive) |

| Compound | IC50 |
| --- | --- |
| CC(=O)Nc1ccc(S(=O)(=O)/N=C2\C(=O)c3ccccc3C([O-])=C2n2cc[n+](-c3ccccn3)c2)cc1 | > 80 µM (inactive) |
| c1ccc(-c2nc(N3CCOCC3)s[n+]2-c2ccccc2)cc1 | > 80 µM (inactive) |
| O=C(O)CSc1cc(NS(=O)(=O)c2cccc([N+](=O)[O-])c2)c2ccccc2c1O | > 80 µM (inactive) |
| O=C(COC(=O)c1ccc2c(c1[N+](=O)[O-])C(=O)c1ccccc1C2=O)NC1CC1 | > 80 µM (inactive) |
| [O-]/[N+](=C\c1ccccc1)c1ccc(Br)cc1 | 66 µM |
| O=[N+]([O-])c1cnc(Sc2ccncn2)c([N+](=O)[O-])c1 | 49.3 µM |
| COc1ccc(CCn2c(NN=C(C)C)nc3c2c(=O)[nH]c(=O)n3C)cc1 | > 80 µM (inactive) |
| O=c1c2ccc(F)cc2sn1-c1ccccc1 | 14.5 µM |
| O=C(CNc1ccc2c(c1)OCO2)N/N=C\c1cn(Cc2ccccc2)c2ccccc12 | > 80 µM (inactive) |
| COc1ccc(CNC(=O)Cc2cn(C)c3ccccc23)c(OC)c1 | > 80 µM (inactive) |
| C/C(Cn1nnc([N+](=O)[O-])n1)=N\NC(=O)c1ccc(O)cc1 | > 80 µM (inactive) |
| O=C(Nc1ccc([N+](=O)[O-])cc1Cl)c1cc(Cl)ccc1O | > 80 µM (inactive) |
| Cn1c(=O)c2[nH]c(-c3ccccc3)c(O)c2n(C)c1=O | > 80 µM (inactive) |
| O=C(CN1C(=O)C2C3C=CC(C3)C2C1=O)OCC(=O)c1ccc([N+](=O)[O-])cc1 (configuration not stated) | 56.7 µM |
| O=C(CNC(=O)c1ccccc1)NCC(=O)OCC(=O)c1ccc([N+](=O)[O-])cc1 | 59.6 µM |
| O=c1c2ccccc2sn1-c1ccccc1F | 14.9 µM |
| CC1=C(O)C(=O)C=C2C1=CC=C1C2(C)CCC2(C)C3CC(C)(C(=O)O)CCC3(C)CCC12C (configuration not stated) | > 80 µM (inactive) |
| O=C(CNC(=O)c1ccco1)OCC(=O)c1ccc([N+](=O)[O-])cc1 | 48.4 µM |
| CCN1CCN(c2nc(C)nc3c2sc(=S)n3C)CC1 | 43.7 µM |
| O=S(=O)(Nc1c(O)ccc2ccccc12)c1ccccc1 | > 80 µM (inactive) |
| O=C1Nc2cc(C(=O)NCCCN3CCCC3)ccc2S/C1=C/c1cccc(Cl)c1 | > 80 µM (inactive) |
| CN1CC[C@@]2(C)c3cc(O)ccc3N(C)[C@@H]12 | > 80 µM (inactive) |
| O=C(Nc1nnc(S(=O)(=O)N2CCOCC2)s1)c1ccc(F)cc1 | > 80 µM (inactive) |
| CCN(CC)C(=O)c1c(C)[nH]c(=S)c(C#N)c1-c1ccco1 | > 80 µM (inactive) |
| CN=c1nc(-c2ccccc2)n(-c2ccccc2)s1 | 13.3 µM |
| O=C1Nc2ccccc2C(=O)C1(Cl)Cc1ccccc1 (configuration not stated) | > 80 µM (inactive) |

| Compound | IC50 |
| --- | --- |
| Cc1cnc(C=NNC(N)=S)c2cccc(N)c12 | > 80 µM (inactive) |
| CN1C(=O)CSc2ccc(NC(=O)N3CCc4ccccc43)cc21 | > 80 µM (inactive) |
| COc1cc(N=c2ssnc2Cl)cc(OC)c1 | 72.6 µM |
| CCn1c(SCC(=O)Nc2ccccc2OC)nnc1-c1cnccn1 | > 80 µM (inactive) |
| O=C1C(=Cc2cccc(O)c2O)SC(=S)N1CCCN1CCOCC1 | 44.3 µM |
| COc1cc(-c2cc(=O)c3c(O)c(OC)c(OC)c(O)c3o2)ccc1O | > 80 µM (inactive) |
| CCN(CC)c1ccc(C(=C2C=CC(=[N+](CC)CC)C=C2)c2ccccc2)cc1 | > 80 µM (inactive) |
| CC1CCc2[nH]c3ccc(C(=O)N(C)CC(=O)Nc4ccccc4C(F)(F)F)cc3c2C1 (configuration not stated) | > 80 µM (inactive) |
| O=C(CCc1ccc(O)c(O)c1)N/N=C/c1cc2c(cc1[N+](=O)[O-])OCO2 | > 80 µM (inactive) |
| O=c1c2cc(F)ccc2sn1-c1ccccc1Cl | 13.8 µM |
| COc1ccc(-c2cn3cc(C)ccc3n2)cc1Br | > 80 µM (inactive) |
| COc1cccc2nc3cc(C)c(C)cc3nc12 | > 80 µM (inactive) |
| CC(=O)Nc1cc([N+](=O)[O-])ccc1OCc1ccccc1 | > 80 µM (inactive) |
| CC(C)(C)NC(=O)COc1ccc(CNc2ccc3[nH]c(=O)[nH]c3c2)cc1 | > 80 µM (inactive) |
| CCC(c1ccc(O)c(O)c1)C(CC)c1ccc(O)c(O)c1 (configuration not stated) | > 80 µM (inactive) |
| Cc1cc(C)nc(/N=C(\N)Nc2ccccc2-c2ccccc2)n1 | > 80 µM (inactive) |
| CCn1c(N)c(C(=O)NC)sc1=S | > 80 µM (inactive) |
| C=CCN=c1scc(-c2ccco2)n1/N=C/c1ccc(O)c(O)c1O | > 80 µM (inactive) |
| COc1cc(N(C)C)ccc1C=c1c2ccccc2n2c1cc(-c1ccccc1)[n+]2C | > 80 µM (inactive) |
| O=C(O)c1ccccc1NS(=O)(=O)c1cccc(-n2sc3ccccc3c2=O)c1 | > 80 µM (inactive) |
| Nc1cc(N)c(OCC(F)(F)F)cc1OCC(F)(F)F | > 80 µM (inactive) |
| COCCNC(=S)Nc1ccc(N2CCOCC2)c(S(=O)(=O)Nc2ccc(Cl)cc2)c1 | > 80 µM (inactive) |
| O=C(N/N=C/c1cccc([N+](=O)[O-])c1)C(=O)N1CCCCCC1 | > 80 µM (inactive) |
| O=C(COC(=O)c1cnccn1)c1ccc([N+](=O)[O-])cc1 | 54.9 µM |
| COc1cc(N2C(=O)C=CC2=O)ccc1N1C(=O)C=CC1=O | 16.5 µM |
| COc1cccc(C(=O)Nc2nnc(C(C)C)s2)c1 | > 80 µM (inactive) |

| Compound | IC50 |
| --- | --- |
| O=S(=O)(Nc1cc(Sc2cccc3cccnc23)c(O)c2ccccc12)c1ccc(F)cc1 | > 80 µM (inactive) |
| Cc1ccc(C)c(-n2sc3ccc(F)cc3c2=O)c1 | 10.5 µM |
| O=C1CCC[C@@H]2[C@@H](Cc3ccccc3)[C@H](N3CCN(c4ccccc4)CC3)C[C@@H]3CCN1[C@@H]32 | > 80 µM (inactive) |
| CN(C)c1ccc(C=c2c3ccccc3n3c2c2ccccc2[n+]3C)cc1 | > 80 µM (inactive) |
| CC(C)c1nnc(NC(=O)c2cccc(-n3cnnn3)c2)s1 | > 80 µM (inactive) |
| CC(C)Cn1c([N+](=O)[O-])nc2c1c(=O)[nH]c(=O)n2C | > 80 µM (inactive) |
| Cc1nnc(Sc2cc(NCCO)c([N+](=O)[O-])c3nonc23)s1 | 53.1 µM |
| Oc1ccc(-c2cn3c(n2)SCC3)cc1O | > 80 µM (inactive) |
| O=c1c2ccccc2[se]n1-c1ccccc1 | 13.5 µM |
| COc1ccc(C(=O)Nc2sc3c(c2C(=O)O)CC(C)(C)OC3)cc1 | > 80 µM (inactive) |
| CCOc1ccc(N(CC(=O)N/N=C/c2cc([N+](=O)[O-])ccc2Cl)S(C)(=O)=O)cc1 | > 80 µM (inactive) |
| CCn1c2ccccc2c2nc3cc(S(=O)(=O)N4CCOCC4)ccc3nc21 | > 80 µM (inactive) |
| O=c1[nH]c2ccc(NCc3ccccc3OCc3ccc(Cl)cc3)cc2[nH]1 | > 80 µM (inactive) |
| CC(=O)Nc1ccc2sn(-c3ccccc3)c(=O)c2c1 | 18.2 µM |
| O=C(Cn1sc2ccccc2c1=O)Nc1ccc(F)cc1 | 21.9 µM |
| CCC(CO)[n+]1c(C)cc(/C=C2\Sc3ccccc3N2Cc2ccccc2)cc1C (configuration not stated) | > 80 µM (inactive) |
| Fc1cccc(Cl)c1CNc1ccc(N2CCCC2)cc1 | > 80 µM (inactive) |
| Cc1cc(O)c(-c2cc(O)c(C)cc2O)cc1O | > 80 µM (inactive) |
| CCC(C)c1ccccc1OCCn1ccnc1 (configuration not stated) | > 80 µM (inactive) |
| c1cncc(CNc2ccc3c(c2)OCO3)c1 | > 80 µM (inactive) |
| Cc1cccc(C2(c3cccc(C)c3)CC2C(=O)Nc2ccc([N+](=O)[O-])cc2O)c1 (configuration not stated) | > 80 µM (inactive) |
| COc1c(O)ccc2c1CN1CCc3cc4c(cc3C1C2)OCO4 (configuration not stated) | > 80 µM (inactive) |
| COc1ccc(C(=O)Nc2nnc(S(=O)(=O)N3CCOCC3)s2)cc1 | > 80 µM (inactive) |
| COc1ccc(NC(=S)N(CCC(C)C)C2CCN(C(C)C)CC2)cc1Cl | > 80 µM (inactive) |
